Numbered stars: 1 amine (or outer) side, 2 acyl side, 3 side chain; on linkers, the order of the positions; unused ones are H or OH. Square brackets hold non-standard residues; d marks the D form. Peptide text beside a SMILES is read from it. ξ: configuration not given here. X1 = O=C([C@H]1CCC[C@@H]1N[*:1])[*:2]; X2 = O=C([C@H]1CNC[C@@H]1N[*:1])[*:2]; ξβ3hY = NC(CC(=O)O)Cc1ccc(O)cc1; ξβ3hN = NC(=O)CC(N)CC(=O)O; ξβ3hL = CC(C)CC(N)CC(=O)O; ξβ3hK = NCCCCC(N)CC(=O)O; ξβ3hT = CC(O)C(N)CC(=O)O; ξβ3hV = CC(C)C(N)CC(=O)O; βAla = NCCC(=O)O
Experiments:
[1] = molecular target: T1, Vasoactive intestinal polypeptide receptor 1 (Homo sapiens, UniProt P32241); assay: Agonist activity at human VIPR1 expressed in CHOK1 cells assessed as intracellular cAMP accumulation after 60 mins by PathHunter assay; type: functional, cell-based
T1 sequence (P32241 whole entry): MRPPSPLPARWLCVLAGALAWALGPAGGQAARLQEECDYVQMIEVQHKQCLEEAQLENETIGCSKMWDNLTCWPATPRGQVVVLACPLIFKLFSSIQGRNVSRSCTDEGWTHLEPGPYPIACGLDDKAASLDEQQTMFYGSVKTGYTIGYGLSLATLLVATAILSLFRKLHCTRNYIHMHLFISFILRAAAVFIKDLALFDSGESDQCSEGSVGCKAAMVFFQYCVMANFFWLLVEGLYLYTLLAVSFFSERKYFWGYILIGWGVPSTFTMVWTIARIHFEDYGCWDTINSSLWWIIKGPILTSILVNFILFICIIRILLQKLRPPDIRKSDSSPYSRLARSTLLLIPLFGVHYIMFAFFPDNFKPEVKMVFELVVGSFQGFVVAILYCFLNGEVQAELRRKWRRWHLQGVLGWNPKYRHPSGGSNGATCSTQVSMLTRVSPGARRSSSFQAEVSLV

[2] = molecular target: T2, Vasoactive intestinal polypeptide receptor 2 (Homo sapiens, UniProt P41587); assay: Agonist activity at human VIPR2 expressed in CHOK1 cells assessed as intracellular cAMP accumulation after 60 mins by PathHunter assay; type: functional, cell-based
T2 sequence (P41587 whole entry): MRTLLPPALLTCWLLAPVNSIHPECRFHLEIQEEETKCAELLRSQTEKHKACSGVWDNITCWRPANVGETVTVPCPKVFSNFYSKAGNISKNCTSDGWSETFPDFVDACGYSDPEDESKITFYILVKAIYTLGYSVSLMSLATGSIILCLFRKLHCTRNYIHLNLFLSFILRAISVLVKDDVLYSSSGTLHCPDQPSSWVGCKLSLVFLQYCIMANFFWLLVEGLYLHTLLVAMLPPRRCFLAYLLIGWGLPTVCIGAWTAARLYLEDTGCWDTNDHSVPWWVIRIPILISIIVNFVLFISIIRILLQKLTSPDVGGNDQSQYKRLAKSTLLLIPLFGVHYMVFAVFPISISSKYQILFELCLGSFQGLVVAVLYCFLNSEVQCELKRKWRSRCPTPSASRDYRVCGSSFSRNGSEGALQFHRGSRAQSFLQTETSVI

Row | EC50 [1] [µM] | EC50 [2] [µM] | Compound
1 | 0.00566 | 4.9 | CC[C@H](C)[C@H](NC(=O)[C@H](C)NC(=O)[C@H](CC(N)=O)NC(=O)CC(CC(C)C)NC(=O)[C@H](Cc1ccc(O)cc1)NC(=O)[C@H](CCCCN)NC(=O)[C@H](CCCCN)NC(=O)CC(NC(=O)[C@H](C)NC(=O)[C@H](CC(C)C)NC(=O)[C@H](CCC(N)=O)NC(=O)CC(CCCCN)NC(=O)[C@H](CCCNC(=N)N)NC(=O)[C@H](CC(C)C)NC(=O)[C@H](CCCNC(=N)N)NC(=O)CC(NC(=O)[C@H](Cc1ccc(O)cc1)NC(=O)[C@H](CC(N)=O)NC(=O)[C@H](CC(=O)O)NC(=O)[C@@H](NC(=O)[C@H](Cc1ccccc1)NC(=O)[C@@H](NC(=O)[C@H](C)NC(=O)[C@H](CC(=O)O)NC(=O)[C@H]1CCC[C@@H]1NC(=O)[C@@H](N)Cc1cnc[nH]1)C(C)C)[C@@H](C)O)C(C)O)C(C)C)C(=O)NC(CC(=O)N[C@@H](CC(N)=O)C(=O)O)CC(C)C (stereo partly drawn) (H-H[X1]DAVFTDNY[ξβ3hT]RLR[ξβ3hK]QLA[ξβ3hV]KKY[ξβ3hL]NAI[ξβ3hL]N-OH)
2 | 0.000358 | 0.0796 | CC[C@H](C)[C@H](NC(=O)[C@H](C)NC(=O)[C@H](CC(N)=O)NC(=O)CC(CC(C)C)NC(=O)[C@H](Cc1ccc(O)cc1)NC(=O)[C@H](CCCCN)NC(=O)[C@H](CCCCN)NC(=O)CC(NC(=O)[C@H](C)NC(=O)[C@H](CC(C)C)NC(=O)[C@H](CCC(N)=O)NC(=O)CC(CCCCN)NC(=O)[C@H](CCCNC(=N)N)NC(=O)[C@H](CC(C)C)NC(=O)[C@H](CCCNC(=N)N)NC(=O)CC(NC(=O)[C@H](Cc1ccc(O)cc1)NC(=O)[C@H](CC(N)=O)NC(=O)[C@H](CC(=O)O)NC(=O)[C@@H](NC(=O)[C@H](Cc1ccccc1)NC(=O)[C@H]1CCC[C@@H]1NC(=O)[C@H](C)NC(=O)[C@H](CC(=O)O)NC(=O)[C@H]1CCC[C@@H]1NC(=O)[C@@H](N)Cc1cnc[nH]1)[C@@H](C)O)C(C)O)C(C)C)C(=O)NC(CC(=O)N[C@@H](CC(N)=O)C(=O)O)CC(C)C (stereo partly drawn) (H-H[X1]DA[X1]FTDNY[ξβ3hT]RLR[ξβ3hK]QLA[ξβ3hV]KKY[ξβ3hL]NAI[ξβ3hL]N-OH)
3 | 0.932 | 0.0956 | CC(C)C[C@H](NC(=O)[C@H](CC(=O)O)NC(=O)[C@H](CC(N)=O)NC(=O)[C@H]1CCC[C@@H]1NC(=O)[C@H](Cc1ccc(O)cc1)NC(=O)[C@H](CCCCN)NC(=O)[C@H]1CNC[C@@H]1NC(=O)[C@H](C)NC(=O)[C@H](C)NC(=O)[C@H](CC(C)C)NC(=O)[C@H](CCC(N)=O)NC(=O)[C@H](CCCCN)NC(=O)[C@H](CCCNC(=N)N)NC(=O)[C@H](CC(C)C)NC(=O)[C@H](CCCCN)NC(=O)[C@@H](NC(=O)CC(Cc1ccc(O)cc1)NC(=O)CC(CC(N)=O)NC(=O)[C@H](CCC(=O)O)NC(=O)[C@@H](NC(=O)[C@H](Cc1ccccc1)NC(=O)[C@H]1CCC[C@@H]1NC(=O)[C@H](C)NC(=O)[C@H](CC(=O)O)NC(=O)[C@H]1CCC[C@@H]1NC(=O)[C@@H](N)Cc1cnc[nH]1)[C@@H](C)O)[C@@H](C)O)C(=O)NC(CCCCN)CC(=O)N[C@@H](CCCCN)C(=O)NCC(=O)NCCC(=O)N[C@H](C(=O)O)[C@@H](C)O (stereo partly drawn) (H-H[X1]DA[X1]FTE[ξβ3hN][ξβ3hY]TKLRKQLAA[X2]KY[X1]NDL[ξβ3hK]KG[βAla]T-OH)
4 | 0.00443 | 0.262 | CC[C@H](C)[C@H](NC(=O)[C@H](C)NC(=O)[C@H](CC(N)=O)NC(=O)CC(CC(C)C)NC(=O)[C@H](Cc1ccc(O)cc1)NC(=O)[C@H](CCCCN)NC(=O)[C@H](CCCCN)NC(=O)CC(NC(=O)[C@H](C)NC(=O)[C@H](CC(C)C)NC(=O)[C@H](CCC(N)=O)NC(=O)CC(CCCCN)NC(=O)[C@H](CCCNC(=N)N)NC(=O)[C@H](CC(C)C)NC(=O)[C@H](CCCNC(=N)N)NC(=O)CC(NC(=O)[C@H](Cc1ccc(O)cc1)NC(=O)[C@H](CC(N)=O)NC(=O)[C@H](CC(=O)O)NC(=O)[C@@H](NC(=O)[C@H](Cc1ccccc1)NC(=O)CC(NC(=O)[C@H](C)NC(=O)[C@H](CC(=O)O)NC(=O)[C@H]1CCC[C@@H]1NC(=O)[C@@H](N)Cc1cnc[nH]1)C(C)C)[C@@H](C)O)C(C)O)C(C)C)C(=O)NC(CC(=O)N[C@@H](CC(N)=O)C(=O)O)CC(C)C (stereo partly drawn) (H-H[X1]DA[ξβ3hV]FTDNY[ξβ3hT]RLR[ξβ3hK]QLA[ξβ3hV]KKY[ξβ3hL]NAI[ξβ3hL]N-OH)

— ChEMBL document CHEMBL4257221, “Peptides comprising non-natural amino acids and methods of making and using the same” (2016)
